Results as given in patent US10316039B2, “P2X3 and/or P2X2/3 compounds and methods” (Asana Biosciences, LLC, priority 2013, dated 2019).

Legend:
P2X3 = target: T1, P2X3 (UniProt P56373); assay: P2X3 FLIPR intracellular calcium assay; type: cell-based; details: agonist at EC75, species (human or rat) not given
T1 sequence (P56373 1-397): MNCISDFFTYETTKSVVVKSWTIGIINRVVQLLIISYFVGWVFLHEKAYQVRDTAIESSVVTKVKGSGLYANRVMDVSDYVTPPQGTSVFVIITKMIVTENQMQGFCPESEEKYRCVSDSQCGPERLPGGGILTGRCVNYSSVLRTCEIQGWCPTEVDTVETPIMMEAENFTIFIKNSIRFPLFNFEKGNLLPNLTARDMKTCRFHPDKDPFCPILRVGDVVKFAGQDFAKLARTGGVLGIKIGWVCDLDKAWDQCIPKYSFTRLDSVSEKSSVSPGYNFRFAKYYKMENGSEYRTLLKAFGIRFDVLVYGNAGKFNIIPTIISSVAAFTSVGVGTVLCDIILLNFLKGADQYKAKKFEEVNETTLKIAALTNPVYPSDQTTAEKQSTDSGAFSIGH
How it was run: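 Human P2X3-HEK, human P2X2/3-TRex293, rat P2X2/3-TRex293 or rat P2X3 TRex-CHO cells loaded with Calcium 4 dye (1.8 mM probenecid, pH 7.4).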

P2X2/3 = target: T2, P2X2/3 (Homo sapiens, UniProt P56373+Q9UBL9); assay: P2X2/3 FLIPR intracellular calcium assay; type: cell-based; details: agonist at EC75, species (human or rat) not given
T2 sequence (Q9UBL9 1-471): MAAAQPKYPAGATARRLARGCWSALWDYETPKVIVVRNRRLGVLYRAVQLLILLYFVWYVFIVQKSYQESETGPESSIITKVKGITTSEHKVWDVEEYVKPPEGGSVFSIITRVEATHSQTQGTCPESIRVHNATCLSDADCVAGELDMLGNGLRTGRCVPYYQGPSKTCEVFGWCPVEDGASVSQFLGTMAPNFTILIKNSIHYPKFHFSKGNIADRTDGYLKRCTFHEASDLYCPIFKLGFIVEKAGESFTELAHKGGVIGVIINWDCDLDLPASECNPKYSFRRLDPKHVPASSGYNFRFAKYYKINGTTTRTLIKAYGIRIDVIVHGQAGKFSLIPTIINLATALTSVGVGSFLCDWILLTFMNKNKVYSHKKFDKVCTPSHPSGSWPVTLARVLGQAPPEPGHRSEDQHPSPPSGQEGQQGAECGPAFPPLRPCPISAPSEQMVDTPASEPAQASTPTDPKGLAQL
T2 sequence (P56373 1-397): T1 sequence (P56373 1-397)
How it was run: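 Stable human P2X2/3 TRex293 cells (doxycycline-induced) loaded with Calcium 4 dye; compounds, 11-point half-log series from 2 mM top stock, preincubated 15 min at RT in HBSS/HEPES pH 7.4 with 1.8 mM CaCl2. Agonist added at EC75; fluorescence change versus no-compound wells gave IC50.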

Row | IC50 (P2X3) | IC50 (P2X2/3) | SMILES
1 | 0.1 to 1 µM | 0.1 to 1 µM | Cc1ccc(CNC(=O)c2cc(-n3nncc3C(C)(F)F)c3ncc(-c4ncc(C)s4)n3c2)cn1 [Example 87]
2 | 0.001 to 0.1 µM | 0.001 to 0.1 µM | COc1ccc(CNC(=O)c2cc(-n3nncc3C(F)F)c3ncc(-c4ccc(C)s4)n3c2)cn1 [Example 83]
3 | 0.001 to 0.1 µM | 0.001 to 0.1 µM | Cc1ccc(-c2cnc3c(-n4nncc4C(F)F)cc(C(=O)N[C@@H](C)c4nnc[nH]4)cn23)o1 [Example 60]
4 | 0.001 to 0.1 µM | 0.001 to 0.1 µM | Cc1ccc(-c2cnc3c(-n4nnnc4CC(F)(F)F)cc(C(=O)N[C@@H](C)c4nnc[nH]4)cn23)s1 [Example 181]
5 | 0.001 to 0.1 µM | 0.001 to 0.1 µM | C[C@H](NC(=O)c1cc(-n2nncc2C(C)(F)F)c2ncc(-c3ccc(Cl)s3)n2c1)c1nnc[nH]1 [Example 76]
6 | 0.001 to 0.1 µM | 0.001 to 0.1 µM | CCc1cnnn1-c1cc(C(=O)NCc2cnc(C)cn2)cn2c(-c3ccc(C)s3)cnc12 [Example 24]
7 | 1 to 10 µM | 0.1 to 1 µM | Cc1ccc(-c2cnc3c(-n4c(C)nnc4C)cc(C(=O)N[C@@H](C)c4nnc[nH]4)cn23)s1 [Example 3, (S)—N-(1-(4H-1,2,4-Triazol-3-yl)ethyl)-8-(3,5-dimethyl-4H-1,2,4-triazol-4-yl)-3-(5-methylthiophen-2-yl)imidazo[1,2-a]pyridine-6-carboxamide]
8 | 0.1 to 1 µM | 1 to 10 µM | Cc1ccc(-c2cnc3c(-c4cnn(CC(N)=O)c4)cc(C(=O)N[C@@H](C)c4nnc[nH]4)cn23)s1 [Example 112]
9 | > 10 µM | 0.001 to 0.1 µM | Cc1noc([C@@H](C)NC(=O)c2cc(-n3nnnc3C(C)(F)F)c3ncc(-c4ccc(C)s4)n3c2)n1 [Example 186]
10 | 0.1 to 1 µM | 0.1 to 1 µM | Cc1ccc(-c2cnc3c(NC4CCCC4)cc(C(=O)N[C@@H](C)c4nnc[nH]4)cn23)s1 [Example 135]
11 | 0.001 to 0.1 µM | 0.1 to 1 µM | Cc1ccc(CNC(=O)c2cc(-n3nnnc3C)c3ncc(-c4ccc(C)s4)n3c2)cn1 [Example 157]
